Measured values taken from PubChem BioAssay (NCI).
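Grown in 96-well plates, cells were treated for 48 hours with each compound at five concentrations. Insufficient inhibition: endpoint recorded as highest concentration tested. Abbreviation: GI50, concentration required for 50% inhibition of growth. TGI: total growth inhibition.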

Columns and labels:
Test in all cases: NCI anticancer screen, dose series, 48 h
LOX IMVI melanoma = tested on: LOX IMVI melanoma
OVCAR-4 ovarian = tested on: OVCAR-4 ovarian
MDA-MB-231 breast = tested on: MDA-MB-231 breast
MCF7 breast = tested on: MCF7 breast
PC-3 prostate = tested on: PC-3 prostate
U251 CNS = tested on: U251 CNS
TK-10 renal = tested on: TK-10 renal
MALME-3M melanoma = tested on: MALME-3M melanoma
OVCAR-8 ovarian = tested on: OVCAR-8 ovarian
COLO 205 colon = tested on: COLO 205 colon
HCT-116 colon = tested on: HCT-116 colon
ACHN renal = tested on: ACHN renal
HL-60(TB) leukemia = tested on: HL-60(TB) leukemia
OVCAR-5 ovarian = tested on: OVCAR-5 ovarian
HS 578T breast = tested on: HS 578T breast
NCI-H460 lung = tested on: NCI-H460 lung
EKVX NSCLC = tested on: EKVX NSCLC
MDA-MB-435 = tested on: MDA-MB-435
SR leukemia = tested on: SR leukemia
M14 melanoma = tested on: M14 melanoma
MOLT-4 leukemia = tested on: MOLT-4 leukemia
UACC-62 melanoma = tested on: UACC-62 melanoma
HOP-62 NSCLC = tested on: HOP-62 NSCLC
MDA-MB-468 breast = tested on: MDA-MB-468 breast
SK-MEL-28 melanoma = tested on: SK-MEL-28 melanoma
T-47D breast = tested on: T-47D breast
OVCAR-3 ovarian = tested on: OVCAR-3 ovarian
SK-OV-3 ovarian = tested on: SK-OV-3 ovarian
NCI-H522 lung = tested on: NCI-H522 lung
CAKI-1 renal = tested on: CAKI-1 renal
SF-295 CNS = tested on: SF-295 CNS
SW-620 colon = tested on: SW-620 colon
A549 NSCLC = tested on: A549 NSCLC
KM12 colon = tested on: KM12 colon
RXF 393 renal = tested on: RXF 393 renal
HT29 colon = tested on: HT29 colon
RPMI-8226 leukemia = tested on: RPMI-8226 leukemia
NCI-H226 lung = tested on: NCI-H226 lung
SNB-19 CNS = tested on: SNB-19 CNS
K-562 leukemia = tested on: K-562 leukemia
UO-31 renal = tested on: UO-31 renal
SN12C renal = tested on: SN12C renal
SK-MEL-5 melanoma = tested on: SK-MEL-5 melanoma
SF-268 CNS = tested on: SF-268 CNS
CCRF-CEM leukemia = tested on: CCRF-CEM leukemia
HCC-2998 colon = tested on: HCC-2998 colon
SF-539 CNS = tested on: SF-539 CNS
HCT-15 colon = tested on: HCT-15 colon
786-0 renal = tested on: 786-0 renal
IGROV1 ovarian = tested on: IGROV1 ovarian
UACC-257 melanoma = tested on: UACC-257 melanoma
A498 renal = tested on: A498 renal
SNB-75 CNS = tested on: SNB-75 CNS
NCI-H23 lung = tested on: NCI-H23 lung
DU-145 prostate = tested on: DU-145 prostate
BT-549 breast = tested on: BT-549 breast
HOP-92 NSCLC = tested on: HOP-92 NSCLC
NCI/ADR-RES ovarian = tested on: NCI/ADR-RES ovarian

`O=C(c1ccc(Cl)cc1)c1ccc(OCCCN2CCN(c3ccncc3)CC2)cc1` showed a GI50 (LOX IMVI melanoma) of 1690 nM, a TGI (LOX IMVI melanoma) of 3.25 µM and a GI50 (OVCAR-4 ovarian) of 5.07 µM. The TGI (OVCAR-4 ovarian) was 23.9 µM, the GI50 (MDA-MB-231 breast) was 4.32 µM and the TGI (MDA-MB-231 breast) was 17.3 µM. It also gave a GI50 (MCF7 breast) of 1890 nM, a TGI (MCF7 breast) of 5.16 µM and a GI50 (PC-3 prostate) of 3.4 µM. For the same compound, the TGI (PC-3 prostate) was 21.4 µM, the GI50 (U251 CNS) was 3.98 µM and the TGI (U251 CNS) was 15.2 µM. It also gave a GI50 (TK-10 renal) of 12.3 µM, a TGI (TK-10 renal) of 25.6 µM and a GI50 (MALME-3M melanoma) of 1790 nM. For the same compound, the TGI (MALME-3M melanoma) was 3410 nM, the GI50 (OVCAR-8 ovarian) was 9.52 µM and the TGI (OVCAR-8 ovarian) was 46.1 µM. It also gave a GI50 (COLO 205 colon) of 1700 nM, a TGI (COLO 205 colon) of 3.51 µM and a GI50 (HCT-116 colon) of 2170 nM. For the same compound, the TGI (HCT-116 colon) was 11.1 µM, the GI50 (ACHN renal) was 8.94 µM and the TGI (ACHN renal) was 21.1 µM. The GI50 (HL-60(TB) leukemia) was 1460 nM, the TGI (HL-60(TB) leukemia) was 3.59 µM and the GI50 (OVCAR-5 ovarian) was 10.5 µM. For the same compound, the TGI (OVCAR-5 ovarian) was 22.9 µM, the GI50 (HS 578T breast) was 6.05 µM and the TGI (HS 578T breast) was 27.7 µM. It also gave a GI50 (NCI-H460 lung) of 4.81 µM, a TGI (NCI-H460 lung) of 18 µM and a GI50 (EKVX NSCLC) of 3.62 µM. For the same compound, the TGI (EKVX NSCLC) was 15.5 µM, the GI50 (MDA-MB-435) was 3.09 µM and the TGI (MDA-MB-435) was 11.5 µM. It also gave a GI50 (SR leukemia) of 1700 nM, a TGI (SR leukemia) of 5.65 µM and a GI50 (M14 melanoma) of 1770 nM. It also gave a TGI (M14 melanoma) of 3.51 µM, a GI50 (MOLT-4 leukemia) of 2880 nM and a TGI (MOLT-4 leukemia) of 9.07 µM. For the same compound, the GI50 (UACC-62 melanoma) was 1800 nM, the TGI (UACC-62 melanoma) was 3.63 µM and the GI50 (HOP-62 NSCLC) was 5.07 µM. For the same compound, the TGI (HOP-62 NSCLC) was 18.3 µM, the GI50 (MDA-MB-468 breast) was 1390 nM and the TGI (MDA-MB-468 breast) was 4.38 µM. The GI50 (SK-MEL-28 melanoma) was 1990 nM, the TGI (SK-MEL-28 melanoma) was 3820 nM and the GI50 (T-47D breast) was 3.22 µM. For the same compound, the TGI (T-47D breast) was 18.3 µM, the GI50 (OVCAR-3 ovarian) was 3.9 µM and the TGI (OVCAR-3 ovarian) was 17.3 µM. For the same compound, the GI50 (SK-OV-3 ovarian) was 5.1 µM, the TGI (SK-OV-3 ovarian) was 18.4 µM and the GI50 (NCI-H522 lung) was 10.3 µM. For the same compound, the TGI (NCI-H522 lung) was 23.4 µM, the GI50 (CAKI-1 renal) was 4.95 µM and the TGI (CAKI-1 renal) was 19.4 µM. It also gave a GI50 (SF-295 CNS) of 2040 nM, a TGI (SF-295 CNS) of 4.82 µM and a GI50 (SW-620 colon) of 2570 nM. For the same compound, the GI50 (A549 NSCLC) was 9.41 µM, the TGI (A549 NSCLC) was 23.7 µM and the GI50 (KM12 colon) was 4.57 µM. The TGI (KM12 colon) was 17 µM, the GI50 (RXF 393 renal) was 831 nM and the TGI (RXF 393 renal) was 6.4 µM. It also gave a GI50 (HT29 colon) of 1810 nM, a TGI (HT29 colon) of 6.41 µM and a GI50 (RPMI-8226 leukemia) of 2380 nM. The TGI (RPMI-8226 leukemia) was 10 µM, the GI50 (NCI-H226 lung) was 4.22 µM and the TGI (NCI-H226 lung) was 19.8 µM. It also gave a GI50 (SNB-19 CNS) of 9.11 µM, a TGI (SNB-19 CNS) of 21.8 µM and a GI50 (K-562 leukemia) of 1080 nM. The TGI (K-562 leukemia) was 4.8 µM, the GI50 (UO-31 renal) was 2360 nM and the TGI (UO-31 renal) was 10.4 µM. The GI50 (SN12C renal) was 10.9 µM, the TGI (SN12C renal) was 23.2 µM and the GI50 (SK-MEL-5 melanoma) was 1730 nM. It also gave a TGI (SK-MEL-5 melanoma) of 4.18 µM, a GI50 (SF-268 CNS) of 11.6 µM and a TGI (SF-268 CNS) of 27.9 µM. The GI50 (CCRF-CEM leukemia) was 2700 nM, the TGI (CCRF-CEM leukemia) was 12.2 µM and the GI50 (HCC-2998 colon) was 3.01 µM. For the same compound, the TGI (HCC-2998 colon) was 8.47 µM, the GI50 (SF-539 CNS) was 1770 nM and the TGI (SF-539 CNS) was 4.58 µM. The GI50 (HCT-15 colon) was 1480 nM, the TGI (HCT-15 colon) was 4.46 µM and the GI50 (786-0 renal) was 1690 nM. The TGI (786-0 renal) was 3.27 µM, the GI50 (IGROV1 ovarian) was 6.59 µM and the TGI (IGROV1 ovarian) was 21 µM. The GI50 (UACC-257 melanoma) was 4.04 µM, the TGI (UACC-257 melanoma) was 15.7 µM and the GI50 (A498 renal) was 16 µM. For the same compound, the TGI (A498 renal) was 30.2 µM, the GI50 (SNB-75 CNS) was 3170 nM and the TGI (SNB-75 CNS) was 18.6 µM. It also gave a GI50 (NCI-H23 lung) of 2890 nM, a TGI (NCI-H23 lung) of 11.7 µM and a GI50 (DU-145 prostate) of 10.1 µM. The TGI (DU-145 prostate) was 23.6 µM, the GI50 (BT-549 breast) was 2860 nM and the TGI (BT-549 breast) was 9.3 µM. The GI50 (HOP-92 NSCLC) was 1540 nM and the TGI (HOP-92 NSCLC) was 11.2 µM.
`Cc1ccc(/C=C/c2n(Cc3ccc4ccccc4c3)c3ccccc3[n+]2Cc2ccc3ccccc3c2)cc1` gave a GI50 (MALME-3M melanoma) of 465 nM, a TGI (MALME-3M melanoma) of 1740 nM and a GI50 (ACHN renal) of 0.782 µM. The TGI (ACHN renal) was 2.03 µM, the GI50 (OVCAR-5 ovarian) was 1.1 µM and the TGI (OVCAR-5 ovarian) was 2.3 µM. The GI50 (HS 578T breast) was 0.382 µM, the TGI (HS 578T breast) was 1.74 µM and the GI50 (UACC-62 melanoma) was 1270 nM. The TGI (UACC-62 melanoma) was 2.56 µM, the GI50 (NCI/ADR-RES ovarian) was 1900 nM and the TGI (NCI/ADR-RES ovarian) was 4.56 µM. It also gave a GI50 (SK-MEL-28 melanoma) of 726 nM, a TGI (SK-MEL-28 melanoma) of 2010 nM and a GI50 (SF-295 CNS) of 399 nM. It also gave a TGI (SF-295 CNS) of 1.66 µM, a GI50 (RXF 393 renal) of 325 nM and a TGI (RXF 393 renal) of 1.39 µM. For the same compound, the GI50 (RPMI-8226 leukemia) was 331 nM, the TGI (RPMI-8226 leukemia) was 2.3 µM and the GI50 (UO-31 renal) was 1440 nM. For the same compound, the TGI (UO-31 renal) was 2.77 µM, the GI50 (SN12C renal) was 1.45 µM and the TGI (SN12C renal) was 2.79 µM. It also gave a GI50 (SK-MEL-5 melanoma) of 905 nM, a TGI (SK-MEL-5 melanoma) of 2.11 µM and a GI50 (SF-268 CNS) of 1.5 µM. It also gave a TGI (SF-268 CNS) of 3.88 µM, a GI50 (SF-539 CNS) of 475 nM and a TGI (SF-539 CNS) of 1.71 µM. For the same compound, the GI50 (SNB-75 CNS) was 729 nM and the TGI (SNB-75 CNS) was 2.15 µM.
